# Experiments:
# [1] = tested on: Mus musculus; assay: Neurobehavioral effect on Swiss Webster mouse assessed as decrease in rectal temperature at 20 mg/kg, ip (reference value: 0.58 +/- 0.26 degC) by mouse tetrad assay; format: functional
# [2] = tested on: Mus musculus; assay: Neurobehavioral effect on Swiss Webster mouse assessed as catalepsy latency time at 20 mg/kg, ip (reference value: 2.1 +/- 0.60 secs) by mouse tetrad assay; format: functional
# [3] = tested on: Mus musculus; assay: Neurobehavioral effect on Swiss Webster mouse assessed as tail-flick latency time at 20 mg/kg, ip (reference value: 0.84 +/- 3.58 %) by mouse tetrad assay; format: functional
# [4] = tested on: Mus musculus; assay: Neurobehavioral effect on Swiss Webster mouse assessed as locomotor activity measured as total number of interruptions at 20 mg/kg, ip monitored for 30 mins (reference value: 2091 +/- 209.3) by mouse tetrad assay; format: functional
# [5] = tested on: Mus musculus; assay: Neurobehavioral effect on Swiss Webster mouse assessed as hot plate latency time at 20 mg/kg, ip (reference value: 8.32 +/- 2.20 %) by mouse tetrad assay; format: functional
# [6] = target: Cannabinoid receptor 1 (Homo sapiens, UniProt P21554); assay: Displacement of [3H]CP55940 from full length human recombinant CB1 receptor expressed in HEK293 cells after 90 mins by scintillation counting analysis; format: cell-based
# [7] = target: Cannabinoid receptor 2 (Homo sapiens, UniProt P34972); assay: Displacement of [3H]CP55940 from full length human recombinant CB2 receptor expressed in HEK293 cells after 90 mins by scintillation counting analysis; format: cell-based
# [8] = tested on: Mus musculus; assay: Neurobehavioral effect on Swiss Webster mouse assessed as locomotor activity measured as total number of interruptions at 10 mg/kg, ip monitored for 30 mins (reference value: 2091 +/- 209.3) by mouse tetrad assay; format: functional
# [9] = tested on: Mus musculus; assay: Neurobehavioral effect on Swiss Webster mouse assessed as hot plate latency time at 10 mg/kg, ip (reference value: 8.32 +/- 2.20 %) by mouse tetrad assay; format: functional
# [10] = tested on: Mus musculus; assay: Neurobehavioral effect on Swiss Webster mouse assessed as decrease in rectal temperature at 40 mg/kg, ip (reference value: 0.58 +/- 0.26 degC) by mouse tetrad assay; format: functional
# [11] = tested on: Mus musculus; assay: Neurobehavioral effect on Swiss Webster mouse assessed as locomotor activity measured as total number of interruptions at 40 mg/kg, ip monitored for 30 mins (reference value: 2091 +/- 209.3) by mouse tetrad assay; format: functional
# [12] = tested on: Mus musculus; assay: Neurobehavioral effect on Swiss Webster mouse assessed as tail-flick latency time at 10 mg/kg, ip (reference value: 0.84 +/- 3.58 %) by mouse tetrad assay; format: functional
# [13] = tested on: Mus musculus; assay: Neurobehavioral effect on Swiss Webster mouse assessed as catalepsy latency time at 10 mg/kg, ip (reference value: 2.1 +/- 0.60 secs) by mouse tetrad assay; format: functional
# [14] = tested on: Mus musculus; assay: Neurobehavioral effect on Swiss Webster mouse assessed as tail-flick latency time at 40 mg/kg, ip (reference value: 0.84 +/- 3.58 %) by mouse tetrad assay; format: functional
# [15] = tested on: Mus musculus; assay: Neurobehavioral effect on Swiss Webster mouse assessed as catalepsy latency time at 40 mg/kg, ip (reference value: 2.1 +/- 0.60 secs) by mouse tetrad assay; format: functional
# [16] = tested on: Mus musculus; assay: Neurobehavioral effect on Swiss Webster mouse assessed as decrease in rectal temperature at 10 mg/kg, ip (reference value: 0.58 +/- 0.26 degC) by mouse tetrad assay; format: functional
# [17] = tested on: Mus musculus; assay: Neurobehavioral effect on Swiss Webster mouse assessed as hot plate latency time at 40 mg/kg, ip (reference value: 8.32 +/- 2.20 %) by mouse tetrad assay; format: functional
# [18] = tested on: Mus musculus; assay: Neurobehavioral effect on Swiss Webster mouse assessed as hot plate latency time at 5 mg/kg, ip (reference value: 8.32 +/- 2.20 %) by mouse tetrad assay; format: functional
# [19] = tested on: Mus musculus; assay: Neurobehavioral effect on Swiss Webster mouse assessed as locomotor activity measured as total number of interruptions at 5 mg/kg, ip monitored for 30 mins (reference value: 2091 +/- 209.3) by mouse tetrad assay; format: functional
# [20] = tested on: Mus musculus; assay: Neurobehavioral effect on Swiss Webster mouse assessed as tail-flick latency time at 5 mg/kg, ip (reference value: 0.84 +/- 3.58 %) by mouse tetrad assay; format: functional
# [21] = tested on: Mus musculus; assay: Neurobehavioral effect on Swiss Webster mouse assessed as decrease in rectal temperature at 5 mg/kg, ip (reference value: 0.58 +/- 0.26 degC) by mouse tetrad assay; format: functional
# [22] = tested on: Mus musculus; assay: Neurobehavioral effect on Swiss Webster mouse assessed as catalepsy latency time at 5 mg/kg, ip (reference value: 2.1 +/- 0.60 secs) by mouse tetrad assay; format: functional
# Chain of Cannabinoid receptor 1 (P21554 whole entry): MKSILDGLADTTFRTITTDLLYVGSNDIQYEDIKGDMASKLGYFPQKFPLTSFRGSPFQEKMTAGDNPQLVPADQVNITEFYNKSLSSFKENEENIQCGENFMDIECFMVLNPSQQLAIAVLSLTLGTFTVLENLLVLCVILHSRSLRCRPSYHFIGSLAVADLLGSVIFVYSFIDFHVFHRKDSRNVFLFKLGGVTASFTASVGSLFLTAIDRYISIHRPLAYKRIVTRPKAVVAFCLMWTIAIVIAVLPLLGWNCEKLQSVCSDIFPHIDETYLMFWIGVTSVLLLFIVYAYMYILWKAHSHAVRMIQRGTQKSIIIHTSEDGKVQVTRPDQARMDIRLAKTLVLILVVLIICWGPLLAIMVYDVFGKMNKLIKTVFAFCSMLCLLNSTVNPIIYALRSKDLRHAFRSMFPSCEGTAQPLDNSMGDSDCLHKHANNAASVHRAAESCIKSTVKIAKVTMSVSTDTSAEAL
# Chain of Cannabinoid receptor 2 (P34972 whole entry): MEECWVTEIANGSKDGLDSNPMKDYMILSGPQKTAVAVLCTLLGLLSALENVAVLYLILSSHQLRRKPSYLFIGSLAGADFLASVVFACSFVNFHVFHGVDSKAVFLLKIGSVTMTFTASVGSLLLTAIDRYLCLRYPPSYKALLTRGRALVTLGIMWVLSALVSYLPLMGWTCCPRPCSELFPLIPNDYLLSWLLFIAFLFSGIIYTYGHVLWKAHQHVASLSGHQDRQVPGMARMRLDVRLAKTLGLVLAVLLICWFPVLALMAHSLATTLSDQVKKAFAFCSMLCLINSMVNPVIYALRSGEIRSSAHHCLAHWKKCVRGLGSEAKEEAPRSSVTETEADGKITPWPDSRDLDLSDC
structure (smiles),measurement,setting,value
CCCCCc1cc(O)c2c(c1)OC(C)(C)[C@@H]1C[C@H](O)C(C)=C[C@@H]21,T,[1],0.58 °C
same,Time,[2],1.5 s
same,MPE,[3],5.01%
same,Activity,[4],908.9
same,MPE,[5],4.95%
same,Ki,[6],1910 nM
same,Ki,[7],3220 nM
CCCCCc1cc(O)c2c(c1)OC(C)(C)[C@@H]1C[C@@H](O)C(C)=C[C@@H]21,Activity,[8],1617
same,T,[1],0.5 °C
same,Time,[2],1.43 s
same,MPE,[3],1.62%
same,MPE,[9],11.83%
same,T,[10],0.91 °C
same,Activity,[11],777.4
same,Activity,[4],1148
same,MPE,[12],0.13%
same,MPE,[5],2.04%
same,Time,[13],1.143 s
same,MPE,[14],12.69%
same,Time,[15],11.43 s
same,T,[16],0.49 °C
same,Ki,[6],65 nM
same,Ki,[7],88 nM
same,MPE,[17],11.79%
CCCCCc1cc(O)c2c(c1)OC(C)(C)[C@@H]1CC=C(C)[C@H](O)[C@@H]21,MPE,[18],21.04%
same,Activity,[8],288.3
same,T,[1],5.38 °C
same,Time,[2],51.1 s
same,MPE,[3],90.16%
same,MPE,[9],56.33%
same,Activity,[19],318.1
same,MPE,[20],37.4%
same,Activity,[4],301.9
same,MPE,[12],31.46%
same,MPE,[5],47.63%
same,Time,[13],23.9 s
same,T,[16],3.21 °C
same,T,[21],2.46 °C
same,Time,[22],22 s
same,Ki,[6],31 nM
same,Ki,[7],30 nM
CCCCCc1cc(O)c2c(c1)OC(C)(C)[C@@H]1CC=C(C)[C@@H](O)[C@@H]21,Activity,[8],3045
same,MPE,[9],6.819%
same,T,[10],5.32 °C
same,Activity,[11],2537
same,MPE,[12],2.2%
same,Time,[13],1.4 s
same,MPE,[14],69.95%
same,Time,[15],13.7 s
same,T,[16],0.47 °C
same,Ki,[6],830 nM
same,Ki,[7],3270 nM
same,MPE,[17],55.65%
C=C1CC[C@@H]2[C@H](c3c(O)cc(CCCCC)cc3OC2(C)C)[C@H]1O,Ki,[6],117 nM
same,Ki,[7],129 nM
CCCCCc1cc(O)c2c(c1)OC(C)(C)[C@@H]1CC[C@@]3(C)O[C@H]3[C@@H]21,MPE,[18],36.98%
same,Activity,[8],291.2
same,T,[1],4.58 °C
same,Time,[2],27.5 s
same,MPE,[3],50.37%
same,MPE,[9],35.89%
same,Activity,[19],213.4
same,MPE,[20],16.25%
same,Activity,[4],380.3
same,MPE,[12],82.71%
same,MPE,[5],49.39%
same,Time,[13],8.8 s
same,T,[16],3.11 °C
same,T,[21],3.75 °C
same,Time,[22],23.8 s
same,Ki,[6],224 nM
same,Ki,[7],335 nM
CCCCCc1cc2c(c(O)c1C(=O)O)[C@@H]1C=C(COC(C)=O)CC[C@H]1C(C)(C)O2,Ki,[6],47 nM
same,Ki,[7],912 nM
CCCCCc1cc(O)c2c(c1)OC(C)(C)[C@@H]1CC[C@](C)(O)[C@@H](O)[C@@H]21,T,[1],0.45 °C
same,Time,[2],2.25 s
same,MPE,[3],2.98%
same,Activity,[4],1892
same,MPE,[5],2.4%
same,Ki,[6],5670 nM
same,Ki,[7],2140 nM
CCCCCc1cc(O)c2c(c1)OC(C)(C)[C@@H]1CC=C(C)C[C@@H]21 [DELTA-8-TETRAHYDROCANNABINOL],MPE,[18],12.82%
same,T,[1],1.96 °C
same,Time,[2],5.3 s
same,MPE,[3],5.97%
same,Activity,[19],1480
same,MPE,[20],8.01%
same,Activity,[4],377.4
same,MPE,[5],16.98%
same,T,[21],0.12 °C
same,Time,[22],1.6 s
CCCCCc1cc(O)c2c(c1)OC(C)(C)[C@@H]1CCC(C)=C[C@@H]21 [DRONABINOL],Activity,[8],190.9
same,T,[1],4.25 °C
same,Time,[2],47.9 s
same,MPE,[3],42.21%
same,MPE,[9],29.04%
same,T,[10],4.8 °C
same,Activity,[11],194
same,Activity,[4],276.2
same,MPE,[12],6.52%
same,MPE,[5],46.85%
same,Time,[13],14.4 s
same,MPE,[14],51.96%
same,Time,[15],37.7 s
same,T,[16],2.05 °C
same,MPE,[17],38.18%
